Source: paper PMC10745505 (Molecules, 2023)
Read-outs that look alike come from different tables or passages of the source.

Tests used:
[1] = system: influenza virus; set-up: method as in PMID 11825310, PMID 9588843; details: usually; cited from earlier work
[2] = Solubility; format: physicochemical; details: compared with the other complexes
[3] = system: MRC-5 cells; experiment: Cellular penetration: Mo content in MRC-5 cells by ICP-AES; format: cell-based, human; details: for Cellular penetration: MRC-5 cells, 30 min to 48 h incubation, ICP-AES
Method: (§1) The cells were seeded into 6-well plates at concentration of 5 × 10^5 cells/well. The next day, solutions of 1 and 2 were added to the plates to give final concentrations of 1.0 mM and incubated with cells for 30 min, 2, 6, 24 and 48 h. Then, cells were washed three times with a sterile phosphate buffer. The cells were then removed from the wells with trypsin and centrifuged at 1000 rpm for 5 min. After centrifugation, the number of cells in each sample was calculated. The resulting cell suspension was brought to a volume of 300 µL in a sterile buffer so that each sample contained 0.5 million cells.
(§2) Molybdenum content in cells after incubation times was determined on a high-resolution spectrometer iCAP-6500 (Thermo Scientific, Waltham, MA, USA) with a cyclone-type spray chamber and “SeaSpray” nebulizer. The spectra were obtained by axial plasma viewing. Standard operating conditions of the ICP-AES system were following: power = 1150 W, injector inner diameter = 3 mm, carrier argon flow = 0.7 L min^−1, accessorial argon flow = 0.5 L min^−1, cooling argon flow = 12 L min^−1, number of parallel measurements = 3, and integration time = 5 s.

[4] = system: MDCK cells (Madin–Darby canine kidney cells); details: absence of virus, up to 500 μM, 72 h
[5] = system: influenza A virus, subtype H5N1 (strain A/chicken/Chelyabinsk region/2KL/Russia/2021); format: cell-based
[6] = system: Hep-2 cells; experiment: Cellular penetration: Mo content in Hep-2 cells by ICP-AES; format: cell-based, human; details: for Cellular penetration: Hep-2 cells, 30 min to 48 h incubation, ICP-AES
Method: as §1, §2

[7] = system: MRC-5 (lung tissue fibroblasts of a human embryo); details: read-out: half-maximal cell inhibition concentration (IC50); MRC-5 cells, MTT, 72 h, concentration range up to 2 mM
Description: (§3) MDCK (Madin–Darby canine kidney, ATCC CCL34), MRC-5 (lung tissue fibroblasts of a human embryo, collection code 112) and Hep-2 (human larynx carcinoma) cell lines were obtained from the Federal Budgetary Research Institution State Research Center of Virology and Biotechnology “Vector” Rospotrebnadzor cell culture collection, Russian Federation and cultured in Eagle’s Minimum Essential Medium (EMEM) and Dulbecco’s Modified Eagle’s Medium (DMEM) in relation to 1:1 supplemented with a 10% fetal bovine serum under a humidified atmosphere (5% CO2 and 95% air) at 37 °C.
(§4) The effect of compounds 1, 2 and 3 on the cells metabolic activity was determined using the 3-[4,5-dimethylthiazol-2-yl]-2,5-diphenyltetrazolium bromide (MTT) colorimetric assay. The Hep-2 and MRC-5 cells were seeded into 96-well plates at 7 × 10^3 cells/well in a medium-containing compound with concentrations from 2 to 0.01 mM and then incubated for 72 h under 5% CO2 atmosphere. After that, 10 μL of the MTT solution (final concentration of MTT is 0.5 mg·mL^−1) was added to each well, and the plates were incubated for a further 4 h. The formazan produced was then dissolved in DMSO (100 μL/well). The optical density of the solutions was measured with a Mindray Microplate Reader MR-96A (Mindray, Shenzhen, China) at a wavelength of 492 nm. The percentage of cell viability was calculated by the formula: (optical density of the solution in the wells after incubation with the compounds/optical density of the control solution) × 100%. Wells with cells incubated in a pure nutrient medium were used as a control.

[8] = system: Hep-2 (human larynx carcinoma cell line); details: read-out: half-maximal cell inhibition concentration (IC50); Hep-2 cells, MTT, 72 h, concentration range up to 2 mM
Description: as §3, §4

[9] = Stability in solution by changes in electronic absorption spectra; format: physicochemical; details: for behaviour in acid solution: HCl, pH~2, two days; for stability in distilled water: pH~6, two days, C~1 mM
Method: Since the compounds are soluble in water, an important factor is their stability in aqueous solutions at different pH. Stability was studied by changes in electronic absorption spectra over two days (C~1 mM, diluted 60 times to record spectra) (Figure 6). […] The most significant changes occur in the acid solution (HCl, pH~2). […] Protonation of the pyrazolate ligands, which occurs in acidic solutions, results in the dissociation of binuclear clusters. […] Unlike the pyrazole, the triazole structure has an additional free nitrogen atom that can be protonated. In this case, protonation of the triazolate ligands and formation of a neutral form [Mo12O28(μ-1,2,4-trz)4(μ-1,2,4-trzH)4] with low solubility apparently occurs. […] The complex can be dissolved back into water by adding any alkali solution, which is confirmed by the preservation of the ^1H NMR spectra (Figure S15). Typically, most POMs are not stable in weakly acidic or alkaline aqueous solutions [26, 27], while the compounds studied show the opposite situation, which is associated with both the structure based on binuclear clusters and their linkages through bridging pyrazolate or triazolate ligands.
Elemental analyses were obtained using a vario MICRO cube analyzer and EuroVector EA3000. Energy-dispersive X-ray spectroscopy (EDS) was performed on a Hitachi TM3000 TableTop SEM (Hitachi High-Technologies Corporation, Tokyo, Japan) with Bruker QUANTAX 70 EDS equipment. FTIR spectra were recorded on a Bruker Vertex 80 as KBr disks. The thermal properties (TGA) were studied on a Thermo Microbalance TG 209 F1 Iris (NETZSCH) from 25 to 800 °C at the heating rate of 10 °C·min^−1 in He flow (30 mL·min^−1). Powder X-ray diffraction patterns were collected on a Philips PW 1820/1710 diffractometer (CuKα radiation, graphite monochromator and Si as an external reference). The absorption spectra (UV–vis) were recorded on an Agilent Cary 60 UV/Vis spectrophotometer.

[10] = system: MDCK cells; set-up: method as in PMID 24878685; details: read-out: IC50 (cytotoxicity against MDCK cells); cited from earlier work
[11] = system: Influenza A H1N1; set-up: method as in PMID 24878685; details: Influenza A H1N1, incubation time 48h, cited from earlier work
[12] = MRC-5, 1 mM solution (∽2350 µg Mo/5·10^5 cells), 30 minutes
[13] = Hep-2, 1 mM solution (∽2350 µg Mo/5·10^5 cells), 30 minutes

Molecule	EC50 [1] [µM]	Quantity of Mo accumulated by cells [3, 12] [μg Mo/5·105 cells]	Quantity of Mo accumulated by cells ([3]; MRC-5, 1 mM solution, 2 hours) [μg Mo/5·105 cells]	Quantity of Mo accumulated by cells ([3]; MRC-5, 1 mM solution, 6 hours) [μg Mo/5·105 cells]	Quantity of Mo accumulated by cells ([3]; MRC-5, 1 mM solution, 24 hours) [μg Mo/5·105 cells]	Quantity of Mo accumulated by cells ([3]; MRC-5, 1 mM solution, 48 hours) [μg Mo/5·105 cells]	Cellular penetration [3]	cytopathic effect on MDCK cells [4]	Quantity of Mo accumulated by cells [6, 13] [μg Mo/5·105 cells]	Quantity of Mo accumulated by cells ([6]; Hep-2, 1 mM solution, 2 hours) [μg Mo/5·105 cells]	Quantity of Mo accumulated by cells ([6]; Hep-2, 1 mM solution, 6 hours) [μg Mo/5·105 cells]	Quantity of Mo accumulated by cells ([6]; Hep-2, 1 mM solution, 24 hours) [μg Mo/5·105 cells]	Quantity of Mo accumulated by cells ([6]; Hep-2, 1 mM solution, 48 hours) [μg Mo/5·105 cells]	Cellular penetration [6]	IC50 [7] [µM]	IC50 [8] [µM]	behaviour in acid solution [9]	stability in distilled water [9]	further results
CCOC(=O)C1=C[C@@H](OC(CC)CC)[C@H](NC(C)=O)[C@@H](N)C1 [oseltamivir]	< 10	–	–	–	–	–	–	–	–	–	–	–	–	–	–	–	–	–	–
CC(=O)N[C@H]1[C@H]([C@H](O)[C@H](O)CO)OC(C(=O)O)=C[C@@H]1N=C(N)N [zanamivir]	< 10	–	–	–	–	–	–	–	–	–	–	–	–	–	–	–	–	–	–
(NH4)4[Mo12O28(μ-1,2,3-trz)8]·4H2O [Compound 3]	–	–	–	–	–	–	–	–	–	–	–	–	–	–	–	–	–	–	solubility in water [2]: significantly lower solubility in water
(NH4)4[Mo12O28(μ-1,2,4-trz)8]·1.5(1,2,4-trzH)·3H2O [Compound 2]	–	0.23	0.11	0.12	0.34	0.34	absence of cell penetration	do not show any significant cytopathic effect	0.18	0.32	0.33	0.43	0.42	absence of cell penetration	1810 ± 40	> 2000	immediately precipitates	high stability	antiviral effect ([5]; MDCK cells in presence of H5N1 virus, concentration range tested up to 500 μM): no effect or insignificant effect; stability in alkaline solution (spectral change) ([9]; NaOH, pH~12, two days): slight change in the absorption intensity
(NH4)4[Mo12O28(μ-pz)8]·1.5pzH·4.5H2O [Compound 1]	–	0.22	0.25	0.24	0.77	0.83	absence of cell penetration	do not show any significant cytopathic effect	0.25	0.46	0.47	0.75	0.75	absence of cell penetration	> 2000	> 2000	complete destruction	high stability	concentrations at which antiviral effect was found ([5]; MDCK cells in presence of H5N1 virus, 72 h, MTT): above 62.5 μM; EC50 ([5]; presence of H5N1 virus, 72 h, nonlinear regression, read-out: EC50 (50% virus-inhibitory effective concentration as indirectly measured by MDCK cell viability)): 82.4 ± 11.4 µM; decrease in the absorption intensity ([9]; NaOH, pH~12, two days): ~ 10%
Cs2K4Na[SiW9Nb3O40] [POM93]	–	–	–	–	–	–	–	–	–	–	–	–	–	–	–	–	–	–	IC50 [10]: 140 µM; EC50 ([11]; converted from μg/mL, read-out: EC50): ~2.4 µM; EC50 [11]: 7.4 ± 1.1 µg/mL
